# Measurements reported in US6939303B2, “Method and system of determining cardiac contractility” (Provecto Tecnico R-2000, Ca, priority 1999, dated 2005).
# Several values for one entry are separate records, joined by “and”; a condition that tells them apart may be missing. Identical values can stand only once. Like-named read-outs stand apart in the source and are kept apart here.
# What was measured:
# [1] = test system: patients, most of them with coronary artery disease; assay: Cardiac contractility under load or inotropic drugs, data of Takeuchi et al. (Examples 1 and 3); assay type: in vivo, human; design: key to C, cardiac contractility calculated with the method of this invention: relative contractility scale; control state C = 100; settings: for Alteration in cardiac contractility, method of this invention: change vs control
# Experimental: (§1) The capability of the method of the present invention to assess cardiac contractility was evaluated using data from several experiments published in the literature and suitable for analysis. In this approach, afterload in the method was expressed as systolic pressure. Since different methodologies to measure cardiac contractility were used, the comparison between them was attained by analyzing the amount of changes (delta values) and were statistically treated using paired t test, ANOVA, correlation, and agreement between methods when applicable, as, for example, described in Lancet, Vol. 1, pages 307 to 310 (1986) by Bland et al.
# Hemodynamic data was utilized from Takeuchi et al. (“Single-Beat Estimation of the Slope of the End-Systolic Pressure-Volume Relation in the Human Left Ventricle”. Circulation, Vol. 83, pages 202 to 212 (1991)).
# Initially, to calibrate the model of the method of this invention, the average normal (or control state) values were used: • Preload (end-diastolic volume)=70 (Pre_adj) • Afterload (Systolic pressure)=109 (After_adj) • Stroke volume (SV)=40 (SV_adj) • Cardiac contractility (C)=100 (C_adj) Thereafter, the C value in each case during angiotension infusion was calculated using its corresponding value of preload, afterload and stroke volume. For instance, for the first case receiving angiotenison, where:
# The first step was to obtain the edge value for the tetrahedron for the control state using the standard mathematical equation for the volume of a tetrahedron: Edge=^3{overscore (6*sv—adj)} Therefore, for the control state, Edge=^3{overscore (6*40)}=6.214465 The next step was to obtain the unitary (u) values of preload (pre_u) and afterload (after_u).
# Pre—u=68*(6.214465/70)=6.036908 [formula] In order to obtain the unitary (u) value of C, using the equation derived herein for cardiac contractility [formula] Therefore, the value of C (C_v) for Case 1 is: [formula] Thus, during angiotensin treatment, the corresponding C values for Cases 1 to 8 were calculated using the method of this invention to be as follows: […]
# Cardiovascular data was utilized from “Single-beat Estimation of the Slope of the End-Systolic Pressure-Volume Relation in the Human Left Ventricle,” Circulation, Vol. 83, pages 202 to 212 (1991) by Takeuchi et al. This study involved 25 patients, most of them with coronary artery disease. […] Hemodynamic modifications were measured with high-fidelity micromanometer and ventriculography. […] The increase in cardiac contractility using dobutamine induced changes measured by the method of this invention was 23% in comparison to the measurements made with ejection fraction of 15% and with ESP/ESV of 32%.
# Conscious Dogs [2] = settings: cited from earlier work; for ESP/ESV Avg. Value / EF Avg. Value: Example 12, animals; for EF Avg. Value: ejection fraction; for Change in contractile state, ESP/ESV / Change in contractile state, dP/dt / Change in contractile state, ejection fraction: dogs
# [3] = test system: patients, most of them with coronary artery disease; design: After_v, afterload (systolic pressure): unit not given beside the values; settings: cited from earlier work; for Alteration in cardiac contractility, ESP/ESV / Alteration in cardiac contractility, ejection fraction: change vs control
# normal subjects [4] = assay: Cardiac contractility with methoxamine and dobutamine, echocardiographic data of Borow et al. (Example 4); assay type: in vivo, human; settings: ten normal subjects
# Experimental: as §1
# Cardiovascular data was utilized from “Sensitivity of End-Systolic Pressure-Dimension and Pressure-Volume Relations to the Inotropic State in Humans,” Circulation, Vol. 65, pages 988 to 997 (1982) by Borow et al. Ten normal subjects were studied echocardiographically.
# normal subjects [5] = settings: ten normal subjects; cited from earlier work
# Conscious Dogs [6] = assay: Contractile state with dobutamine and verapamil, data of Little et al. (Example 12); assay type: in vivo, dog; settings: for Method of This Invention Avg. Value: Example 12, animals, control 100.0; for Change in contractile state, method of this invention: dogs
# Experimental: as §1
# Cardiovascular data was utilized from “Response of the Left Ventricular End-Systolic Pressure-Volume Relation in Conscious Dogs to a Wide Range of Contractile States,” Circulation, Vol. 78, pages 736 to 745 (1988) by Little et al. In this study, the contractile state was increased by dobutamine and decreased by verapamil.
# [7] = test system: patients with coronary artery disease; settings: load modifications; cited from earlier work
# [8] = test system: patients with coronary artery disease; assay: Cardiac contractility with methoxamine and nitrates, data of Mehmel et al. (Example 6); assay type: in vivo, human; settings: load modifications
# Experimental: as §1
# Cardiovascular data was utilized from “The Linearity of the End-Systolic Pressure-Volume Relationship in Man and its Sensitivity for Assessment of Left Ventricular Function,” Circulation, Vol. 63, pages 1216 to 1222 (1981) by Mehmel et al. This study was performed in patients with coronary artery disease and with catheter-tip manometer and ventricular angiogram measurements.
# Conscious Dog [9] = assay: Changes in preload, afterload and inotropic state, data of Mahler et al. (Example 13); assay type: in vivo; settings: for Method of This Invention Avg. Value: Example 13, animals, control 100.0; for Change, method of the present invention: conscious dog
# Experimental: as §1
# Cardiovascular data was utilized from “Effects of Changes in Preload, Afterload and Inotropic State on Ejection and Isovolumic Phase Measures of Contractility in the Conscious Dog,” Am. J. Cardiol., Vol. 35, pages 623 to 634 (1975) by Mahler et al. In this study, increase in preload was attained by Ringer's solution infusion, and rise of blood pressure with phenylephrine administration. […] The method of this invention was less sensitive than the other indices to measure changes in the inotropic state induced with isoproterenol or propranolol.
# [10] = test system: normal subjects and patients with coronary artery disease; settings: cited from earlier work
# Conscious Dog [11] = settings: cited from earlier work; for Vcf Avg. Value (velocity of shortening) / dP/dT Avg. Value: Example 13, animals; for Change, Vcf / Change, dP/dt / Change, dP/dt DP40: conscious dog
# [12] = test system: normal subjects and patients with coronary artery disease; assay: Cardiac contractility with phenylephrine, data of El-Tobgi et al. (Example 5); assay type: in vivo, human
# Experimental: as §1
# Cardiovascular data was utilized from “Left Ventricular Function in Coronary Artery Disease,” J. Am. Coll. Cardiol., Vol. 3, pages 781 to 788 (1984) by El-Tobgi et al. In this study, normal subjects (group I) were compared with two groups of patients with coronary artery disease (groups II and III, the last one with ventricular dysfunction) and studied with tip-manometer catheter and ventriculography measurements. In basal conditions, the method of this invention behaves similar to the ejection fraction in detecting depression in cardiac contractility in group III (−17.2% and −18.0%, respectively).
# [13] = test system: patients with hyperthyroidism; settings: administration of propranolol; cited from earlier work
# [14] = test system: patients with hyperthyroidism; assay: Cardiac contractility with propranolol, data of Merillon et al. (Example 8); assay type: in vivo, human; settings: administration of propranolol
# Experimental: as §1
# Cardiovascular data was utilized from “Left Ventricular Function and Hyperthyroidism,” Br. Heart J., Vol. 46, pages 137 to 143 (1981) by Merillon et al. In patients with hyperthyroidism and invasive assessment of ventricular function, the administration of propranolol produced a fall in cardiac contractility. This change was similar when the inotropic state was assessed by means of P/V ratio (−28%), ejection fraction (−19%), dP/dt (−20%), and dP/dt/TP (−19%). Use of the method of the present invention gave a value for the change in cardiac contractility of −17%.
# [15] = group I (normal subjects), increase in blood pressure with phenylephrine
# [16] = group III (coronary artery disease with ventricular dysfunction), with the increase in blood pressure
compound,measurement,setting,value
"CC(CCc1ccc(O)cc1)NCCc1ccc(O)c(O)c1 (stereo not drawn) [Dobutamine, dobutamine]","Alteration in cardiac contractility, method of this invention",[1],23%
same,ESP/ESV Avg. Value,Conscious Dogs [2],18.5 mm Hg per ml
same,EF Avg. Value,Conscious Dogs [2],54.8 percentage
same,"Change in contractile state, ESP/ESV",Conscious Dogs [2],150%
same,"Change in contractile state, dP/dt",Conscious Dogs [2],34.1%
same,"Change in contractile state, ejection fraction",Conscious Dogs [2],17.1%
same,"Alteration in cardiac contractility, ESP/ESV",[3],32%
same,"Alteration in cardiac contractility, ejection fraction",[3],15%
same,"Change in cardiac contractility, method of this invention",normal subjects [4],27.5%
same,"Change in cardiac contractility, ESP/ESV",normal subjects [5],57.6%
same,"Change in cardiac contractility, ejection fraction",normal subjects [5],12.8%
same,Method of This Invention Avg. Value,Conscious Dogs [6],111.7
same,"Change in contractile state, method of this invention",Conscious Dogs [6],11.7%
"O=[N+]([O-])OCC(CO[N+](=O)[O-])O[N+](=O)[O-] [Nitroglycerin, nitroglycerin]","Alteration in cardiac contractility, method of this invention",[1],−4%
same,"Alteration in cardiac contractility, ESP/ESV",[3],9%
same,"Alteration in cardiac contractility, ejection fraction",[3],8.3%
"COc1ccc(CCN(C)CCCC(C#N)(c2ccc(OC)c(OC)c2)C(C)C)cc1OC (stereo not drawn) [Verapamil, verapamil]",ESP/ESV Avg. Value,Conscious Dogs [2],5.1 mm Hg per ml
same,EF Avg. Value,Conscious Dogs [2],39.2 percentage
same,"Change in contractile state, ESP/ESV",Conscious Dogs [2],−38.5%
same,"Change in contractile state, dP/dt",Conscious Dogs [2],−39.9%
same,"Change in contractile state, ejection fraction",Conscious Dogs [2],−10.9%
same,Method of This Invention Avg. Value,Conscious Dogs [6],77.1
same,"Change in contractile state, method of this invention",Conscious Dogs [6],−23%
"COc1ccc(OC)c(C(O)C(C)N)c1 (stereo not drawn) [Methoxamine, methoxamine]",Change measured using ejection fraction,[7],−5.0%
same,"Change in cardiac contractility, method of this invention",[8],3.3%
same,"Change in cardiac contractility, method of this invention",normal subjects [4],1.4%
same,"Change in cardiac contractility, ejection fraction",normal subjects [5],−10.4%
"CNC[C@H](O)c1cccc(O)c1 [Phenylephrine, phenylephrine]",Method of This Invention Avg. Value,Conscious Dog [9],100.8
same,"Change, method of the present invention",Conscious Dog [9],0.8%
same,EF Avg. Value,"[10]; Example 5, CAD + VD",50.5 percentage
same,ESP/ESV Avg. Value,"[10]; Example 5, CAD + VD",5.0 mm Hg per ml
same,EF Avg. Value,"[10]; Example 5, CAD",64.0 percentage
same,ESP/ESV Avg. Value,"[10]; Example 5, CAD",9.9 mm Hg per ml
same,EF Avg. Value,"[10]; Example 5, Healthy",67.5 percentage
same,ESP/ESV Avg. Value,"[10]; Example 5, Healthy",10.4 mm Hg per ml
same,Change in ejection fraction,[10]; [15],−0.1%
same,Fall in ESP/ESV,[10]; [16],−51.9%
same,Fall in ejection fraction,[10]; [16],−25.3%
same,Vcf Avg. Value (velocity of shortening),Conscious Dog [11],1.61 circulation per second
same,dP/dT Avg. Value,Conscious Dog [11],3670 mm Hg per second
same,"Change, Vcf",Conscious Dog [11],−26%
same,"Change, dP/dt",Conscious Dog [11],−2%
same,"Change, dP/dt DP40",Conscious Dog [11],2%
same,Method of This Invention Avg. Value,"[12]; Example 5, CAD",107.3
same,Method of This Invention Avg. Value,"[12]; Example 5, CAD + VD",84.2
same,Method of This Invention Avg. Value,"[12]; Example 5, Healthy",110.4
same,"Change in cardiac contractility, method of the present invention",[12]; [15],10.4%
same,"Fall in cardiac contractility, method of this invention",[12]; [16],−15.8%
"CC(C)NCC(O)c1ccc(O)c(O)c1 (stereo not drawn) [Isoproterenol, isoproterenol]",Method of This Invention Avg. Value,Conscious Dog [9],120.3
same,"Change, method of the present invention",Conscious Dog [9],20.3%
same,Vcf Avg. Value (velocity of shortening),Conscious Dog [11],2.83 circulation per second
same,dP/dT Avg. Value,Conscious Dog [11],5430 mm Hg per second
same,"Change, Vcf",Conscious Dog [11],53%
same,"Change, dP/dt",Conscious Dog [11],55%
same,"Change, dP/dt DP40",Conscious Dog [11],56%
"CC(C)NCC(O)COc1cccc2ccccc12 (stereo not drawn) [Propranolol, propranolol]","Change in inotropic state, ESP/ESV",[13],−32%
same,"Change in inotropic state, P/V ratio",[13],−28%
same,"Change in inotropic state, dP/dt",[13],−20%
same,"Change in inotropic state, dP/dt/TP",[13],−19%
same,"Change in inotropic state, ejection fraction",[13],−19%
same,"Change in inotropic state, velocity of shortening",[13],−32%
same,"Change in cardiac contractility, method of the present invention",[14],−17%
same,Method of This Invention Avg. Value,Conscious Dog [9],95.2
same,"Change, method of the present invention",Conscious Dog [9],−4.8%
same,Vcf Avg. Value (velocity of shortening),Conscious Dog [11],1.80 circulation per second
same,dP/dT Avg. Value,Conscious Dog [11],3000 mm Hg per second
same,"Change, Vcf",Conscious Dog [11],−18%
same,"Change, dP/dt",Conscious Dog [11],−18%
same,"Change, dP/dt DP40",Conscious Dog [11],−13%
O=[N+]([O-])O [Nitrate],Change measured using ejection fraction,[7],5.0%
same,"Change in cardiac contractility, method of this invention",[8],−1.7%
angiotensin,"Alteration in cardiac contractility, method of this invention",[1],0.4%
same,"C, cardiac contractility calculated with the method of this invention","[1]; individual cases 1 to 8 during angiotensin treatment, one line per case, control state C=100",115.24 and 63.33 and 95.99 and 88.76 and 100.71 and 116.54 and 73.04 and 117.72
same,"Alteration in cardiac contractility, ESP/ESV",[3],9.1%
same,"Alteration in cardiac contractility, ejection fraction",[3],−10.3%
same,"SV_v, stroke volume","[3]; individual cases 1 to 8 receiving angiotensin, one line per case, control mean 40",41 and 38 and 30 and 34 and 40 and 50 and 36 and 60
same,"Pre_v, preload (end-diastolic volume)","[3]; individual cases 1 to 8 receiving angiotensin, one line per case, control mean 70",68 and 119 and 66 and 78 and 79 and 82 and 95 and 93
same,"After_v, afterload (systolic pressure)","[3]; individual cases 1 to 8 receiving angiotensin, one line per case, control mean 109",142 (2×) and 155 and 176 and 164 and 156 and 145 and 125
